In the assay the target is T1, human GPR84 receptor (Homo sapiens, UniProt Q9NQS5).
T1 construct: host or cells: HEK293 cells, transient transfection
The experiment in a line: Gαi biosensor BRET assay in HEK293 cells transfected with GPR84, stimulated with the GPR84 agonist ZQ-16. The format is cell-based. As to conditions: 200 nmol/L ZQ-16; for inhibition at 10 µM / inhibition at 2 µM: HEK293, single concentration; for inhibition at 10 µM: concentration class F = 10 μM; for inhibition at 2 µM: concentration class A = 2 μM. An excerpt:
Background—The following assays can be used for determination of GPR84 activation in living HEK293 cells. The Gαi BRET biosensor (Gagnon et al., 2018; Gales et al., 2006. Nat Struct Mol Biol. 13, 778-86; Saulieres et al., 2012. Nat Chem Biol. 8, 622-30) allows to directly monitor GPR84-mediated activation of Gαi. The Gαi biosensor consists of a Rluc8-tagged Gαi2 subunit, a GFP10-tagged Gγ2 subunit, and an untagged GB1. Agonist stimulation and GPR84 activation triggers a physical separation between the RLuc8-Gαi donor and the GFP10-Gγ2 acceptor, resulting in a decrease in BRET signal whose amplitude is correlated to ligand efficacy (Gales et al., 2006). Moreover, signaling functions of GPCRs are tightly regulated by endocytosis, the targeting of receptors to endosomes and their sorting to lysosomes or recycling to the plasma membrane. The early endosomes (EEs) trafficking assay (Namkung et al., 2016. Nat Commun. 7, 12178) uses Rluc8-tagged GPR84 and Renilla GFP (rGFP) attached to the FYVE domain from human endofin/zinc finger FYVE domain-containing protein 16, which binds phosphatidylinositol 3-phosphate in EEs. Agonist stimulation of GPR84-Rluc8 leads to trafficking of the receptor to EEs, and ensuing increase of the donor concentration relative to the rGFP-FYVE acceptor anchored in the same cellular compartment, and thus results in an increase in BRET signal.
Plasmids—The cDNA clones for human GPR84 receptor, human Gαi2, Gβ1, and Gγ2 were obtained from the cDNA Resource Center (www.cdna.org). GFP10 (F64L, S147P, S202F and H231L variant of Aequorea victoria Green Fluorescent Protein) gBlocks gene fragments (Integrated DNA Technologies, IA) and linker were inserted in frame at the N-terminus of human Gγ2. Rluc8 (A^55T, Cl24A, S130A, K136R, A^143M, M185V, M253L, and S287L variant of the Renilla reniformis luciferase) gBlocks gene fragment was inserted with linkers in frame in between residues 91 and 92 of Gαi2 or at the C-terminus of GPR84. The FYVE domain from human endofin (residues Q739 to K806) attached in frame at the C terminus of a humanized Renilla GFP (rGFP), were synthesized as gBlocks gene fragments.
Bioluminescence Resonance Energy Transfer (BRET) Measurement-HEK293 cells were transfected with GPR84-Rluc8 and rGFP-FYVE for the EEs trafficking biosensor or with GPR84, Gαi2-Rluc8, GFP10-Gγ2, and Gβ1 for the Gαi biosensor. The following day, transiently transfected cells were seeded in 96-well white clear bottom microplates coated with poly-D-lysine and left in culture for 24 hours. Cells were washed once with Tyrode's buffer (140 mmol/L NaCl, 1 mmol/L CaCl2, 2.7 mmol/L KCl, 0.49 mmol/L MgCl2, 0.37 mmol/L NaH2PO4, 5.6 mmol/L glucose, 12 mmol/L NaHCO3, and 25 mmol/L HEPES, pH 7.5) before performing assays in Tyrode's buffer. Test compounds were incubated with cells for 5 (Gai) or 15 (EEs) minutes at 37° C. before addition of 200 nmol/L of the GPR84 agonist ZQ-16 (2-(Hexylthio)-6-hydroxy-4 (3H)-pyrimidinone) for 5 minutes at room temperature (Gai) or 30 minutes at 37° C. (EEs). The Rluc8 substrate coelenterazine 400A (Prolume, Lakeside, AZ) was added at a final concentration of 5 μmol/L and BRET readings were collected using an Infinite M1000 microplate reader (Tecan, Morrisville, NC). BRET2 readings between Rluc8 and GFP10 or rGFP were collected by sequential integration of the signals detected in the 370 to 450 nm (Rluc8) and 510 to 540 nm (GFP10, rGFP) windows. The BRET signal was calculated as the ratio of light emitted by acceptor (GFP10, rGFP) over the light emitted by donor (Rluc8). The values were corrected to net BRET by subtracting the background BRET signal obtained in cells transfected with Rluc8 constructs alone. Ligand-promoted net BRET values were calculated by subtracting vehicle-induced net BRET from ligand-induced net BRET.
Background: In BRET a luciferase serves as donor, and the signal depends on an acceptor being close.

Our source for the inhibition and IC50 values is patent US20260256747A1, “ARYL-TRIAZOLYL AND RELATED GPR84 ANTAGONISTS AND USES THEREOF” (Liminal BioSciences Limited, priority 2022, published 2026).

The structures appear in SMILES notation. Some results are limits rather than exact numbers.

T1 sequence (Q9NQS5 whole entry): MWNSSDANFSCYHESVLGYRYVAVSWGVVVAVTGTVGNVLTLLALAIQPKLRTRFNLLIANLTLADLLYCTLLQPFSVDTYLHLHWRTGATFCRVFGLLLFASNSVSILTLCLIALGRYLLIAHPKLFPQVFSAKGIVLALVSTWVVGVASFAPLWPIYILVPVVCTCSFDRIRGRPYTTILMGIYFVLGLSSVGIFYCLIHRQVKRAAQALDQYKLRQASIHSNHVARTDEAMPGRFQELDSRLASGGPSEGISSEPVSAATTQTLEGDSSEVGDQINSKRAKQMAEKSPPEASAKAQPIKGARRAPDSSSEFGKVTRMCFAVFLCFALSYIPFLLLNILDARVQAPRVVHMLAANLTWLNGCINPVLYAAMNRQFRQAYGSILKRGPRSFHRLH

As a reminder, the inhibition is the drop in the measured response relative to a control, in per cent. A high value points to strong suppression. In turn, `[2H]C([2H])([2H])C1(C([2H])([2H])[2H])COC(Cn2cc(-c3ccc(N4CC(C)(CO)C4)cc3N(C)C)nn2)OC1` [Compound I-206] yielded an inhibition at 10 µM of at most 25%.
Molecule `c1ccc(CN2CCN(c3cnc(-c4cn(CC5OCC6(CC6)CO5)cn4)c(OC4CC4)c3)CC2)nc1` [Compound I-211] returned an inhibition at 10 µM of 25 to 50%.
Molecule `Clc1cc(N2CCN(Cc3ccccn3)CC2)cnc1-c1cn(CC2OCC3(CC3)CO2)cn1` [Compound I-212] displayed an inhibition at 10 µM of 50 to 75%.
Still for that read-out and setting: the figure for `CN(C)C(=O)CCn1cc(-c2ncc(C#CC3CC3)cc2OC2CC2)nn1` [Compound I-213] is 25 to 50%; for `Clc1cc(N2CCN(Cc3ccccn3)CC2)cnc1-c1cncn1CC1OCC2(CC2)CO1` [Compound I-214] it is 50 to 75%; for `Clc1cc(N2CCN(Cc3ccccn3)CC2)cnc1-c1c[nH]cn1` [Compound I-215] it is at most 25%.
Same read-out and setting: the figure for `CN(C)C(=O)Cn1cc(-c2ncc(C#CC3CC3)cc2OC2CC2)cn1` [Compound I-216] is at most 25%; for `O=C(Cn1cc(-c2ncc(C#CC3CC3)cc2OC2CC2)cn1)N1CCCC1` [Compound I-217] it is 25 to 50%.
For orientation: IC50 means the concentration that inhibits the measured activity by half. A lower IC50 goes with inhibition by little substance. `C(#CC1CC1)c1cnc(-c2cnn(CC3OCC4(CC4)CO3)c2)c(OC2CC2)c1` [Compound I-218]: the IC50 was 300 to 1000 nM and the inhibition at 2 µM is above 75%.
With `Cc1cc(C#CC2CC2)ccc1-c1nnc(-c2cn(CC3OCC4(CC4)CO3)nn2)o1` [Compound I-220], the IC50 was in the range of 300 to 1000 nM and the inhibition at 10 µM was above 75%.
On to `CCCOc1cc(C#CC2CC2)cnc1-c1cn(CC(=O)N(C)C)nn1` [Compound I-221], for which the inhibition at 10 µM is 50 to 75%.
On the same count and under the same terms, the figure for `Cn1nnnc1-c1cnc(-c2cn(CC3OCC4(CC4)CO3)nn2)c(OC2CC2)c1` [Compound I-222] is at most 25%.
On to `Cn1nnc(-c2cnc(-c3cn(CC4OCC5(CC5)CO4)nn3)c(OC3CC3)c2)n1` [Compound I-223], for which the IC50 was at most 300 nM and the inhibition at 2 µM was above 75%.
For `c1nc(-c2cn(CC3OCC4(CC4)CO3)nn2)c(OC2CC2)cc1-c1cnn[nH]1` [Compound I-224], in that order: at most 300 nM and above 75%.
Turning to `Cn1nncc1-c1cnc(-c2cn(CC3OCC4(CC4)CO3)nn2)c(OC2CC2)c1` [Compound I-225], the inhibition at 10 µM fell in the range of 50 to 75%.
Consider `Cn1ncc(-c2cnc(-c3cn(CC4OCC5(CC5)CO4)nn3)c(OC3CC3)c2)n1` [Compound I-226], for which the IC50 was at most 300 nM and the inhibition at 2 µM is above 75%.
For `Cn1cc(-c2cnc(-c3cn(CC4OCC5(CC5)CO4)nn3)c(OC3CC3)c2)nn1` [Compound I-227], in that order: at most 300 nM and above 75%.
Regarding `c1ncc(-c2cnc(-c3cn(CC4OCC5(CC5)CO4)nn3)c(OC3CC3)c2)[nH]1` [Compound I-228], the IC50 is at most 300 nM and the inhibition at 2 µM is above 75%.
`c1c[nH]c(-c2cnc(-c3cn(CC4OCC5(CC5)CO4)nn3)c(OC3CC3)c2)n1` [Compound I-229] displayed an inhibition at 10 µM of at most 25%.
On the same count and under the same terms, the figure for `Cn1cncc1-c1cnc(-c2cn(CC3OCC4(CC4)CO3)nn2)c(OC2CC2)c1` [Compound I-230] is 50 to 75%; for `CN(C)C(=O)CN(C)c1cnc(-c2cn(CC3OCC4(CC4)CO3)nn2)c(OC2CC2)c1` [Compound I-231] it is at most 25%; for `CN(C)C(=O)Cn1cc(-c2ncc(-c3nnn[nH]3)cc2OC2CC2)nn1` [Compound I-232] it is 50 to 75%.
The molecule `O=C(Cn1cc(-c2ncc(-c3nnn[nH]3)cc2OC2CC2)nn1)N1CCCC1` [Compound I-233] gave an inhibition at 10 µM of 25 to 50%.
Still for that read-out and setting: the figure for `C(#CC1CC1)Cn1cc(-c2ncc(-c3nnn[nH]3)cc2OC2CC2)nn1` [Compound I-234] is above 75%.
As to `c1cc(-c2cnc(-c3cn(CC4OCC5(CC5)CO4)nn3)c(OC3CC3)c2)n[nH]1` [Compound I-235], the half-inhibitory concentration (IC50) was at most 300 nM and the inhibition at 2 µM is above 75%.
Molecule `c1n[nH]cc1-c1cnc(-c2cn(CC3OCC4(CC4)CO3)nn2)c(OC2CC2)c1` [Compound I-236] showed an IC50 of 300 to 1000 nM and an inhibition at 10 µM above 75%.
The molecule `Cn1nccc1-c1cnc(-c2cn(CC3OCC4(CC4)CO3)nn2)c(OC2CC2)c1` [Compound I-237] registered an inhibition at 10 µM of 50 to 75%.
For the molecule `Cn1ccc(-c2cnc(-c3cn(CC4OCC5(CC5)CO4)nn3)c(OC3CC3)c2)n1` [Compound I-238], the IC50 is at most 300 nM and the inhibition at 2 µM is above 75%.
As to `Cn1cc(-c2cnc(-c3cn(CC4OCC5(CC5)CO4)nn3)c(OC3CC3)c2)cn1` [Compound I-239], the IC50 is at most 300 nM and the inhibition at 10 µM is above 75%.
In turn, `CN(C)C(=O)Cn1cc(-c2ncc(C#N)cc2OC2CC2)nn1` [Compound I-240] registered an inhibition at 10 µM of at most 25%.
`N#Cc1cnc(-c2cn(CC(=O)N3CCCC3)nn2)c(OC2CC2)c1` [Compound I-241]: the inhibition at 10 µM fell in the range of 25 to 50%.
For `O=C(Cn1cnc(-c2ncc(C#CC3CC3)cc2OC2CC2)c1)N1CCCC1` [Compound I-242], the inhibition at 10 µM was 50 to 75%.
On the same count and under the same terms, the figure for `O=C(Cn1cncc1-c1ncc(C#CC2CC2)cc1OC1CC1)N1CCCC1` [Compound I-243] is at most 25%.
In the case of `O=C(Cn1cc(-c2ncc(C#CC3CC3)cc2OC2CC2)nn1)N1CC[C@H](O)C1` [Compound I-244], the IC50 lay in the range of 1000 to 3000 nM and the inhibition at 10 µM was above 75%.
For `O=C(Cn1cc(-c2ncc(C#CC3CC3)cc2OC2CC2)nn1)N1CC[C@@H](O)C1` [Compound I-245] the same measures were 1000 to 3000 nM and above 75%.
`O=C(Cn1cc(-c2ncc(C#CC3CC3)cc2OC2CC2)nn1)N1C[C@@H](O)[C@H](O)C1` [Compound I-246] returned an inhibition at 10 µM of 50 to 75%.
On the same count and under the same terms, the figure for `O=C(Cn1cc(-c2ncc(C#CC3CC3)cc2OC2CC2)nn1)N1C[C@H](O)[C@@H](O)C1` [Compound I-247] is above 75%; for `O=C(Cn1cc(-c2ncc(C#CC3CC3)cc2OC2CC2)nn1)N1C[C@@H](O)[C@@H](O)C1` [Compound I-248] it is above 75%.
Turning to `O=C(Cn1cc(-c2nc(O)c(C#CC3CC3)cc2OC2CC2)nn1)N1CCCC1` [Compound I-249], the inhibition at 2 µM is at most 25%.
On to `O=C(Cn1cc(-c2ncc(C#CC3(O)CC3)cc2OC2CC2)nn1)N1CCCC1` [Compound I-250], for which the inhibition at 10 µM is above 75%.
`CN(C)C(=O)Cn1cc(-c2nc(O)c(C#CC3CC3)cc2OC2CC2)nn1` [Compound I-251] registered an inhibition at 2 µM of at most 25%.
On to `CN(C)C(=O)Cn1cc(-c2ncc(C#CC3(O)CC3)cc2OC2CC2)nn1` [Compound I-252], for which the inhibition at 10 µM is above 75%.
In turn, `O=C(Cn1cc(-c2c(OC3CC3)cc(C#CC3CC3)c[n+]2[O-])nn1)N1CCCC1` [Compound I-253] displayed an IC50 of 1000 to 3000 nM and an inhibition at 10 µM above 75%.
`C(#CC1CC1)c1ccc(-c2nnc(-c3cn(CC4OCC5(CC5)CO4)nn3)o2)cc1` [Compound I-254] came in with an inhibition at 10 µM of 25 to 50%.
On the same count and under the same terms, the figure for `Cc1ccc(C#CC2CC2)cc1-c1nnc(-c2cn(CC3OCC4(CC4)CO3)nn2)o1` [Compound I-255] is 50 to 75%.
